Results from patent publication US5567692A, “9-[(substituted glycyl) amido)]-6-demethyl-6-deoxytetracyclines” (priority 1995, dated 1996).
Counter-ions that a name gives are not always drawn.

Key:
Type in all cases: cell-based
[1] = tested on: Staphylococcus Coagulase-negative, (methicillin-susceptible); test: MIC range, recent clinical and veterinary isolates; conditions: 18 h, [14] isolates
[2] = tested on: E. faecalis ATCC 29212; test: MIC, agar dilution; conditions: E. faecalis ATCC 29212
[3] = tested on: Morganella morganii; test: MIC range, recent clinical and veterinary isolates; conditions: 18 h, [16] isolates
[4] = tested on: Streptococcus pneumoniae; test: MIC range, recent clinical and veterinary isolates; conditions: 18 h, [10] isolates, read-out: MIC Range
[5] = tested on: Shigella spp.; test: MIC range, recent clinical and veterinary isolates; conditions: 18 h, [14] isolates
[6] = tested on: Salmonella choleraesuis (Veterinary); test: MIC range, recent clinical and veterinary isolates; conditions: Salmonella enterica, 18 h, [15] isolates
[7] = tested on: Citrobacter diversus; test: MIC range, recent clinical and veterinary isolates; conditions: Citrobacter koseri, 18 h; Citrobacter diversus, [10] isolates; read-out: MIC Range
[8] = tested on: Staphylococcus aureus, (methicillin-resistant); test: MIC range, recent clinical and veterinary isolates; conditions: 18 h, [15] isolates
[9] = tested on: E. coli J3272 Tet D; test: microbe, parasite or virus in culture; conditions: dihydrochloride
[10] = tested on: E. coli UBMS 89-2 Tet sens.; test: MIC, agar dilution; conditions: E. coli UBMS 89-2 Tet sens.
[11] = tested on: Bacteroides spp.; test: MIC range, recent clinical and veterinary isolates; conditions: Bacteroides, 18 h, read-out: MIC Range
[12] = tested on: Clostridium perfringens; test: microbe, parasite or virus in culture; conditions: 18 h, read-out: MIC Range
[13] = tested on: Enterococcus 12201; test: MIC, agar dilution; conditions: Enterococcus 12201
[14] = tested on: tetracycline sensitive and resistant Gram-positive and Gram-negative bacteria; test: In vitro antibacterial evaluation, summary in words; conditions: summary of Tables I, II and V, dihydrochloride
[15] = tested on: Clostridium difficile; test: MIC range, recent clinical and veterinary isolates; conditions: Clostridioides difficile, 18 h; Clostridium difficile, [12] isolates; read-out: MIC Range
[16] = tested on: Proteus vulgaris; test: MIC range, recent clinical and veterinary isolates; conditions: 18 h, [18] isolates, read-out: MIC Range
[17] = tested on: Citrobacter freundii; test: MIC range, recent clinical and veterinary isolates; conditions: 18 h, [10] isolates, read-out: MIC Range
[18] = tested on: Streptococcus agalactiae; test: MIC range, recent clinical and veterinary isolates; conditions: 18 h, read-out: MIC Range
[19] = tested on: S. aureus UBMS 90-3; test: MIC, agar dilution; conditions: Staphylococcus aureus, UBMS903, 18 h
[20] = tested on: S. aureus ROSE (MP); test: MIC, agar dilution; conditions: Staphylococcus aureus, 18 h, read-out: MIC
[21] = tested on: Enterococcus spp, (Vancomycin-resistant); test: MIC range, recent clinical and veterinary isolates; conditions: 18 h, [8] isolates
[22] = tested on: Proteus mirabilis; test: MIC range, recent clinical and veterinary isolates; conditions: 18 h, read-out: MIC Range
[23] = tested on: Ps. aeruginosa ATCC 27853; test: MIC, agar dilution; conditions: Ps. aeruginosa ATCC 27853; dihydrochloride
[24] = tested on: Staphylococcus Coagulase-negative, (methicillin-resistant); test: MIC range, recent clinical and veterinary isolates; conditions: 18 h, [16] isolates
[25] = tested on: Escherichia coli; test: MIC range, recent clinical and veterinary isolates; conditions: 18 h, read-out: MIC Range
[26] = tested on: X. maltophilia NEMC 87210; test: MIC, agar dilution; conditions: X. maltophilia NEMC 87210; dihydrochloride
[27] = tested on: Providencia spp.; test: MIC range, recent clinical and veterinary isolates; conditions: 18 h, read-out: MIC Range

## CN(C)CC(=O)Nc1ccc2c(c1O)C(=O)C1=C(O)[C@]3(O)C(=O)C(C(N)=O)=C(O)[C@@H](N(C)C)C3CC1C2 (stereo partly drawn) [CC, [4S-(4alpha,12aalpha)]-4-(Dimethylamino)-9-[[(dimethylamino)acetyl]amino]-1,4,4a,5,5a,6,11,12a-octahydro-3,10,12,12a-tetrahydroxy-1,11-dioxo-2-naphthacenecarboxamide dihydrochloride]
[1]
  MIC: 0.06 to 4 µg/mL
[2]
  MIC: 0.03 µg/mL
[3]
  MIC: 0.5 to 1 µg/mL
[4]
  MIC: 0.03 to 0.5 µg/mL
[5]
  MIC: 0.12 to 0.5 µg/mL
[6]
  MIC: 0.5 to 8 µg/mL
[7]
  MIC: 0.25 to 1 µg/mL
[8]
  MIC: 0.12 to 4 µg/mL
[9]
  MIC: 0.03 µg/mL
[10]
  MIC: 0.25 µg/mL
[11]
  MIC: 0.12 to 0.5 µg/mL
[12]
  MIC: 0.03 to 2 µg/mL
[13]
  MIC: 0.03 µg/mL
[14]
  in vitro antibacterial activity (in words): excellent in vitro activity
[14]; listed as 9-[(N,N-dimethylglycyl)amido)]-6-demethyl-6-deoxytetracycline
  in vitro antibacterial activity (in words): potent in vitro antibacterial activity
[15]
  MIC: 0.06 to 0.12 µg/mL
[16]
  MIC: 0.06 to 1 µg/mL
[17]
  MIC: 0.5 to 8 µg/mL
[18]
  MIC: 0.12 to 0.25 µg/mL
[19]
  MIC: 0.03 µg/mL
[20]
  MIC: 1 µg/mL
[21]
  MIC: 0.03 to 0.12 µg/mL
[22]
  MIC: 0.12 to 2 µg/mL
[23]
  MIC: 4 µg/mL
[24]
  MIC: 0.06 to 16 µg/mL
[25]
  MIC: 0.25 to 4 µg/mL
[26]
  MIC: 1 µg/mL
[27]
  MIC: 1 to 8 µg/mL
